Measured values taken from patent US11299485B2, “Thiophene derivative and use thereof” (FUJIMOTO CO., LTD., priority 2018, dated 2022).

Assays:
Assay type in all cases: cell-based
MM.1S cells = assay: Human myeloma cell line MM.1S proliferation suppression test; conditions: MM1.S, 72 h, compound 10 μM, 3 days, WST-1 or WST-8, read-out: cell survival rate (% of control) MM.1S
Description: Example 51: Human Myeloma Cell Line MM.1S Proliferation Suppression Test
MM.1S cells (ATCC, CRL-2974) were suspended in 10% fetal calf serum (Thermo Fisher Scientific)-containing RPMI1640 medium (ATCC, hereinafter abbreviated as medium B), and diluted as appropriate with 0.4% trypan blue solution (Sigma-Aldrich Co. LLC.). The number of viable cells was counted with a hemocytometer (ERMA INC.). It was diluted with medium B such that the value obtained was 2×10^5 cells/mL. On the other hand, 50 μL of a solution obtained by diluting 4 mM DMSO solution of the test compound 200-fold with medium B was added to each well of a Falcon 96-well flat bottom plate (Corning Incorporated), and the above-mentioned cell suspension was dispensed at 50 μL/well (final concentration of test compound 10 μM). 50 μL of a solution obtained by diluting DMSO 200-fold with medium B was added to the control well. After culturing at 37° C. in a 5% CO2 stream for 3 days, the cell proliferation activity was measured using WST-1 (DOJINDO LABORATORIES) or WST-8 Kit (KISHIDA CHEMICAL Co., Ltd.) and according to each instruction manual attached thereto.

Daudi cells = assay: Human Burkitt lymphoma cell line Daudi proliferation suppression test; conditions: 72 h, compound 10 μM, 3 days, WST-8, read-out: cell survival rate (% of control) Daudi
From the text: Example 54: Human Burkitt Lymphoma Cell Line Daudi Proliferation Suppression Test
Daudi cells (National Institutes of Biomedical Innovation, Health and Nutrition (NIBIOHN), JCRB9071) were suspended in medium B, and diluted as appropriate with 0.4% trypan blue solution (Sigma-Aldrich Co. LLC.). The number of viable cells was counted with a hemocytometer (ERMA INC.). A cell suspension obtained by diluting with medium B such that the value obtained was 1.3×10^5 cells/mL was dispensed into a Falcon 96 well flat bottom plate (Corning Incorporated) at 75 μL/well, and culture was started at 37° C. under 5% CO2 stream. The next day, a solution obtained by diluting 4 mM DMSO solution of the test compound 100-fold with medium B was added by 25 μL to each well (final concentration of test compound 10 μM). 25 μL of a solution obtained by diluting DMSO 100-fold with medium B was added to the control well. After culturing at 37° C. in a 5% CO2 stream for 3 days, the cell proliferation activity was measured according to the instruction manual attached to WST-8 Kit (KISHIDA CHEMICAL Co., Ltd.).

Pfeiffer cells = assay: Human diffuse large B-cell lymphoma cell line Pfeiffer proliferation suppression test; conditions: 144 h, compound 10 μM, 3 days + re-plating with compound 3 days, WST-8, read-out: cell survival rate (% of control) Pfeiffer
From the text: Example 52: Human Diffuse Large B-Cell Lymphoma Cell Line Pfeiffer Proliferation Suppression Test
Pfeiffer cells (ATCC, CRL-2632) were suspended in medium B, and diluted as appropriate with 0.4% trypan blue solution (Sigma-Aldrich Co. LLC.). The number of viable cells was counted with a hemocytometer (Funakoshi Co., Ltd.). A cell suspension obtained by diluting with medium B such that the value obtained was 1.3×10^5 cells/mL was dispensed into a Falcon 96 well flat bottom plate (Corning Incorporated) at 75 μL/well, and culture was started at 37° C. under 5% CO2 stream. The next day, a solution obtained by diluting 4 mM DMSO solution of the test compound 100-fold with medium B was added by 25 μL to each well (final concentration of test compound 10 μM). 25 μL of a solution obtained by diluting DMSO 100-fold with medium B was added to the control well. After culturing at 37° C. in a 5% CO2 stream for 3 days, the cell culture medium was uniformly suspended with a multi channel pipette, 14 μL per well was transferred into another new Falcon 96 well flat bottom plate. A solution obtained by diluting 4 mM DMSO solution of the same test compound as the first time 400-fold with medium B was added by 86 μL to a total amount of 100 μL (final concentration of test compound 10 μM). After culturing at 37° C. in a 5% CO2 stream for 3 days, the cell proliferation activity was measured according to the instruction manual attached to WST-8 Kit (KISHIDA CHEMICAL Co., Ltd.).

Compound | viability at 10 µM (MM.1S cells) [%] | viability at 10 µM (Daudi cells) [%] | viability at 10 µM (Pfeiffer cells) [%]
O=C1CCC(n2cc(-c3cscc3OCc3cccc(CN4CCOCC4)c3)nn2)C(=O)N1 (stereo not drawn) [compound 39, 3-(4-{4-[3-(morpholinomethyl)benzyloxy]thiophen-3-yl}-1H-1,2,3-triazol-1-yl)piperidine-2,6-dione] | 26 | 30 | 69
O=C1CCC(n2cc(-c3csc(CO)c3)nn2)C(=O)N1 (stereo not drawn) [compound 9, 3-{4-[5-(hydroxymethyl)thiophen-3-yl]-1H-1,2,3-triazol-1-yl}piperidine-2,6-dione] | 77 | 83 | 100
COc1ccc(COc2cscc2-c2cn(C3CCC(=O)NC3=O)nn2)cc1 (stereo not drawn) [compound 31, 3-{4-[4-(4-methoxybenzyloxy)thiophen-3-yl]-1H-1,2,3-triazol-1-yl}piperidine-2,6-dione] | 27 | 39 | 82
COCc1ccc(COc2cscc2-c2cn(C3CCC(=O)NC3=O)nn2)cc1 (stereo not drawn) [compound 37, 3-(4-{4-[4-(methoxymethyl)benzyloxy]thiophen-3-yl}-1H-1,2,3-triazol-1-yl)piperidine-2,6-dione] | 24 | 20 | 71
O=C1CCC(n2cc(-c3cscc3Br)nn2)C(=O)N1 (stereo not drawn) [compound 1, 3-[4-(4-bromothiophen-3-yl)-1H-1,2,3-triazol-1-yl]piperidine-2,6-dione] | 33 | 61 | 89
O=C1CCC(n2cc(-c3cscc3OCc3ccc(CN4CCOCC4)cc3)nn2)C(=O)N1 (stereo not drawn) [compound 36, 3-(4-{4-[4-(morpholinomethyl)benzyloxy]thiophen-3-yl}-1H-1,2,3-triazol-1-yl)piperidine-2,6-dione] | 16 | 6 | 34
O=C1CCC(n2cc(-c3scc4c3OCCO4)nn2)C(=O)N1 (stereo not drawn) [compound 10, 3-[4-(2,3-dihydrothieno[3,4-b][1,4]dioxin-5-yl)-1H-1,2,3-triazol-1-yl]piperidine-2,6-dione] | 78 | 85 | 113
COc1cc(-c2cn(C3CCC(=O)NC3=O)nn2)cs1 (stereo not drawn) [compound 20, 3-[4-(5-methoxythiophen-3-yl)-1H-1,2,3-triazol-1-yl]piperidine-2,6-dione] | 35 | 55 | 81
CCOc1cscc1-c1cn(C2CCC(=O)NC2=O)nn1 (stereo not drawn) [compound 17, 3-[4-(4-ethoxythiophen-3-yl)-1H-1,2,3-triazol-1-yl]piperidine-2,6-dione] | 32 | 50 | 72
O=C1CCC(n2cc(-c3cscc3OCc3ccc(Cl)cc3)nn2)C(=O)N1 (stereo not drawn) [compound 43, 3-{4-[4-(4-chlorobenzyloxy)thiophen-3-yl]-1H-1,2,3-triazol-1-yl}piperidine-2,6-dione] | 30 | 36 | 89
COc1cscc1-c1nnn(C2CCC(=O)NC2=O)c1I (stereo not drawn) [compound 49, 3-[5-iodo-4-(4-methoxythiophen-3-yl)-1H-1,2,3-triazol-1-yl]piperidine-2,6-dione] | 48 | 42 | 75
CN(C)Cc1ccc(COc2cscc2-c2cn(C3CCC(=O)NC3=O)nn2)cc1.Cl (stereo not drawn) [compound 46, 3-[4-(4-{4-[(dimethylamino)methyl]benzyloxy}thiophen-3-yl)-1H-1,2,3-triazol-1-yl]piperidine-2,6-dione hydrochloride] | 35 | 29 | 84
COc1c(-c2cn(C3CCC(=O)NC3=O)nn2)csc1Br (stereo not drawn) [compound 23, 3-[4-(5-bromo-4-methoxythiophen-3-yl)-1H-1,2,3-triazol-1-yl]piperidine-2,6-dione] | 75 | 76 | 97
